{
  "source": "patent US9815820B2",
  "about": "“Rho kinase inhibitors” (priority 2012, dated 2017)",
  "key": {"human CD4+ T cells": {"test_system": "human CD4+ T cells", "assay": "Foxp3 expression in CD4+ T cells after Th17 skewing activation", "assay_type": "cell-based", "settings": "5 days of Th17 skewing activation"}, "[1]": {"test_system": "CD4+ T cells from RA patients", "assay": "cytokine secretion ex vivo in CD3/CD28 stimulated CD4+ T cells from RA patients", "assay_type": "cell-based, human"}, "CD4+CD25+ human Tregs": {"test_system": "CD4+CD25+ human Tregs", "assay": "Treg suppression of IL-17 secretion in CD4+CD25- effector T cells", "assay_type": "cell-based", "settings": "Tregs treated 3 hours; Treg:Teff 1:4 and 1:9"}, "CD4+ human T cells [2]": {"test_system": "CD4+ human T cells", "assay": "proliferation of T cells in response to TCR stimulation in vitro", "assay_type": "cell-based", "settings": "listed as KD025"}, "STAT3 phosphorylation": {"test_system": "STAT3 phosphorylation", "assay": "STAT3 phosphorylation in T cells", "assay_type": "cell-based, human"}, "PBMCs": {"test_system": "PBMCs", "assay": "ex vivo anti-CD3/CD28 stimulation of cytokine production in PBMCs isolated from treated patients", "parameters": "species or system human", "settings": "120 mg/day on days 1 and 8-14"}, "CD4+ human T cells [3]": {"test_system": "CD4+ human T cells", "assay": "cytokine secretion in anti-CD3/CD28 stimulated CD4+ T cells in vitro", "assay_type": "cell-based", "settings": "anti-CD3/CD28 stimulation"}, "[4]": {"test_system": "TGF-β-induced STAT3, MLC and SMAD2/3 phosphorylation", "assay": "TGF-β-induced phosphorylation of STAT3, MLC and SMAD2/3 in Tregs"}, "[5]": {"settings": "CD4+ T cells from RA patients, ex vivo, listed as KD025"}},
  "note": "“Also recorded” adds a separate entry of the source.",
  "data": [
    {"smiles": "CC(C)NC(=O)COc1cccc(-c2nc(Nc3ccc4[nH]ncc4c3)c3ccccc3n2)c1", "note": "[SLx-2119]", "values": [
      {"measurement": "percentage of Foxp3+ cells", "setting": "human CD4+ T cells", "result": "significantly increased"},
      {"measurement": "frequencies of IL-17 and IFN-γ-producing cells", "setting": "[1]; 2 RA patients, intracellular staining", "result": "significantly reduced the frequencies"},
      {"measurement": "IFN-γ secretion", "setting": "[1]; [5]", "result": "inhibits; also recorded: significantly down-regulated"},
      {"measurement": "IL-17 secretion", "setting": "[1]; [5]", "result": "inhibits; also recorded: significantly down-regulated"},
      {"measurement": "IL-21 secretion", "setting": "[1]; [5]", "result": "inhibits; also recorded: significantly down-regulated"},
      {"measurement": "ability of Tregs to suppress IL-17 secretion in CD4+CD25- effector T cells", "setting": "CD4+CD25+ human Tregs", "result": "significantly increased"},
      {"measurement": "proliferation in response to TCR stimulation", "setting": "CD4+ human T cells [2]", "result": "inhibits; also recorded: down-regulated their ability to proliferate"},
      {"measurement": "STAT3 phosphorylation", "setting": "STAT3 phosphorylation; Th17-skewing conditions 5 days, then treatment 3 hours", "result": "STAT3 phosphorylation was reduced"},
      {"measurement": "phosphorylation of STAT3, IRF4 and RORγt", "setting": "STAT3 phosphorylation; anti-CD3/CD28, TGF-β and IL-1β, 48 hours (FIG. 9C)", "result": "reduced phosphorylation of STAT3, as well as IFR4 and RORγT, was confirmed"},
      {"measurement": "phosphorylation of STAT3", "setting": "STAT3 phosphorylation; pre-treatment, then anti-CD3/CD28 stimulation", "result": "reduced phosphorylation of STAT3"},
      {"measurement": "IFN-γ in PBMCs", "setting": "PBMCs", "result": "No effect"},
      {"measurement": "induction of IL-17 secretion in PBMCs", "setting": "PBMCs", "result": "significantly inhibited in PBMCs isolated from four of five patients"},
      {"measurement": "induction of IL-21 secretion in PBMCs", "setting": "PBMCs", "result": "significantly inhibited in PBMCs from all five patients"},
      {"measurement": "IFN-γ secretion", "setting": "CD4+ human T cells [3]", "result": "less robust and significant only at high dose (10 μM)"},
      {"measurement": "IL-2 secretion", "setting": "CD4+ human T cells [3]", "result": "observed only at the highest concentration (10 μM)"},
      {"measurement": "IL-17 secretion", "setting": "CD4+ human T cells [3]; listed as KD025", "result": "inhibits; also recorded: significantly inhibited"},
      {"measurement": "IL-21 secretion", "setting": "CD4+ human T cells [3]; listed as KD025", "result": "inhibits; also recorded: significantly inhibited"},
      {"measurement": "phosphorylation of SMAD2/3", "setting": "[4]", "result": "remains intact"},
      {"measurement": "TGF-β-induced MLC phosphorylation", "setting": "[4]; dose-dependent", "result": "down-regulates"},
      {"measurement": "TGF-β-induced STAT3 phosphorylation", "setting": "[4]; dose-dependent", "result": "down-regulates"}
    ]}
  ]
}
